Data as given in paper PMC5446409 (Scientific Reports, 2017).

Columns and labels:
hERG (hKv11.1) = molecular target: T1, hERG (hKv11.1) (Homo sapiens, UniProt Q12809); test: automated patch clamp of I Kr in hERG-HEK293 cells; independently verified in hERG-CHO ([…] at […]); type: cell-based
T1 construct: gene KCNH2; human KCNH2 stably expressed in HEK293 cells

[1] = molecular target: T2, hCav1.2 (L-type calcium channel, LTCC) (Homo sapiens, UniProt Q13936); test: automated patch clamp of I Ca,L in Cav1.2-CHO cells; confirmed by conventional patch clamp with Ba2+ as charge carrier; type: cell-based
T2 construct: gene CACNA1C; hCav1.2/β2/α2δ1 channel stably expressed in CHO cells; with CACNB2 (β2) and CACNA2D1 (α2δ1) subunits
T2 sequence (Q13936 whole entry): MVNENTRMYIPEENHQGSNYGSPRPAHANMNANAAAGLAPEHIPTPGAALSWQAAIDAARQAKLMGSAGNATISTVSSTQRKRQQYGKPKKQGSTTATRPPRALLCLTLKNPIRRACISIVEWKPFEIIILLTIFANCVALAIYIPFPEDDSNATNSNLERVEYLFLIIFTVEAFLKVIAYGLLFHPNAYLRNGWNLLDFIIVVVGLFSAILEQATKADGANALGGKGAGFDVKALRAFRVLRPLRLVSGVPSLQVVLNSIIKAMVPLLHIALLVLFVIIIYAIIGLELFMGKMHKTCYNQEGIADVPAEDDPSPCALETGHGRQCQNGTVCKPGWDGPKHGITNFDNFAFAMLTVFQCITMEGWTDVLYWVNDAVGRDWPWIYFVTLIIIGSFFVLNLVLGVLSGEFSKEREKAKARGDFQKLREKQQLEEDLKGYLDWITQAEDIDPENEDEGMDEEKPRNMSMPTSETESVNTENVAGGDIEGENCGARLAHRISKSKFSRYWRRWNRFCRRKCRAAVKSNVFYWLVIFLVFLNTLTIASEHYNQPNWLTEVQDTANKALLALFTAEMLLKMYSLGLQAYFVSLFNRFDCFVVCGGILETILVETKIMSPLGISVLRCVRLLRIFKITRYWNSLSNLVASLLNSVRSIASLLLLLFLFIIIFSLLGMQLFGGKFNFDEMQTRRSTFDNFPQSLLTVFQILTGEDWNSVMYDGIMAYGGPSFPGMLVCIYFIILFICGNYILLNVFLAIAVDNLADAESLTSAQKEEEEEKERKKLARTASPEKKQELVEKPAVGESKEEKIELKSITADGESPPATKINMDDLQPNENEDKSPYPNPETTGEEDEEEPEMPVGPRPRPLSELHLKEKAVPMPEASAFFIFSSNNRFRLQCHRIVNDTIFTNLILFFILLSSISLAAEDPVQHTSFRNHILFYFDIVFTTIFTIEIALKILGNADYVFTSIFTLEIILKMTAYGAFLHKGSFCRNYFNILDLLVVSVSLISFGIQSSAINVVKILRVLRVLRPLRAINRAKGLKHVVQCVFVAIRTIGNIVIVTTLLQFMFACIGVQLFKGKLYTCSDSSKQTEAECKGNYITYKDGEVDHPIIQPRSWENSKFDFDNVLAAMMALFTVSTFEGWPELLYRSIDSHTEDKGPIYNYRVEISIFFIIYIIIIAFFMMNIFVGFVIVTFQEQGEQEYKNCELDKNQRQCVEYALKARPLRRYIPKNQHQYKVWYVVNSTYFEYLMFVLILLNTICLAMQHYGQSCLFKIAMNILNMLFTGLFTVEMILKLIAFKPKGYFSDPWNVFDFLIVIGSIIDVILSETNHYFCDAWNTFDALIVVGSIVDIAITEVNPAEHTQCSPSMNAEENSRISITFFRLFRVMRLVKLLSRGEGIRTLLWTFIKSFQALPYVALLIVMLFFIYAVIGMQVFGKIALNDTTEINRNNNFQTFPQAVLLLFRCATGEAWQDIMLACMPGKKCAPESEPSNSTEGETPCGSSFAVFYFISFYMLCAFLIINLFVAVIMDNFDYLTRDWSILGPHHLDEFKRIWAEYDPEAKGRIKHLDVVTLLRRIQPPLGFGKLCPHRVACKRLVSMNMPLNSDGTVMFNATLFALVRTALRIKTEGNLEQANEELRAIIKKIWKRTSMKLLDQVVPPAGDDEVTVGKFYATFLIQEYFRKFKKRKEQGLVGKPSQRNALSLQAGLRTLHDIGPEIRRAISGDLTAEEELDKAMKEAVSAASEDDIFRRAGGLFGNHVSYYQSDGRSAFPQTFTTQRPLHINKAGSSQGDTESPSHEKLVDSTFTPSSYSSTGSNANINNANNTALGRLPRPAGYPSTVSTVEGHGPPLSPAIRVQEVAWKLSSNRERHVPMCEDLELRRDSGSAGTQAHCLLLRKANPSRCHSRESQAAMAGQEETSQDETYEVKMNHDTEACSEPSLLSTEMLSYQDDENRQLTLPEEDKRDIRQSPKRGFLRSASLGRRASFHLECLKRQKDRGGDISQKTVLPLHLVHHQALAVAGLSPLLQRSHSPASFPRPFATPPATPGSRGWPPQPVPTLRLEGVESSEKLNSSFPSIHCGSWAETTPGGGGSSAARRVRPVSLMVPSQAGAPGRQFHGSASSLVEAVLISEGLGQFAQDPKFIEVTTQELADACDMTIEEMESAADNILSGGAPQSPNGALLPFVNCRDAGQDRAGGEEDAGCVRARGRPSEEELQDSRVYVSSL
T2 sequence (Q08289 whole entry partner): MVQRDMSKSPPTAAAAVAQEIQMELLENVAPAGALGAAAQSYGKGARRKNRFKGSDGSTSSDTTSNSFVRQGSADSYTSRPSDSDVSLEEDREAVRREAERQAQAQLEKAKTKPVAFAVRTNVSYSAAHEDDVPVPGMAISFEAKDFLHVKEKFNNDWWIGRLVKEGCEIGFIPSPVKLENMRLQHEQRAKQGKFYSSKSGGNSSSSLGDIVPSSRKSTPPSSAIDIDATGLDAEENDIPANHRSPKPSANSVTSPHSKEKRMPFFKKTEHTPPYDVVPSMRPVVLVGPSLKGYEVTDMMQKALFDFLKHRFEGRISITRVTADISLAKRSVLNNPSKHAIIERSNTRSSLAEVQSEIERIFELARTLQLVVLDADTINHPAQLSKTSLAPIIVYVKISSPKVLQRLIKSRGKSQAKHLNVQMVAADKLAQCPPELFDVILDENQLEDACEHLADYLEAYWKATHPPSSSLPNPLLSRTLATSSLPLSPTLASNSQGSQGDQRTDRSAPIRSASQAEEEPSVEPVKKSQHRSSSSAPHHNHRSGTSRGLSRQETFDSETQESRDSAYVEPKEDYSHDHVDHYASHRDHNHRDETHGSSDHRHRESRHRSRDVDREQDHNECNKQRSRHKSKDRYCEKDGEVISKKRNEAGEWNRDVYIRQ
T2 sequence (P54289 25-956 partner): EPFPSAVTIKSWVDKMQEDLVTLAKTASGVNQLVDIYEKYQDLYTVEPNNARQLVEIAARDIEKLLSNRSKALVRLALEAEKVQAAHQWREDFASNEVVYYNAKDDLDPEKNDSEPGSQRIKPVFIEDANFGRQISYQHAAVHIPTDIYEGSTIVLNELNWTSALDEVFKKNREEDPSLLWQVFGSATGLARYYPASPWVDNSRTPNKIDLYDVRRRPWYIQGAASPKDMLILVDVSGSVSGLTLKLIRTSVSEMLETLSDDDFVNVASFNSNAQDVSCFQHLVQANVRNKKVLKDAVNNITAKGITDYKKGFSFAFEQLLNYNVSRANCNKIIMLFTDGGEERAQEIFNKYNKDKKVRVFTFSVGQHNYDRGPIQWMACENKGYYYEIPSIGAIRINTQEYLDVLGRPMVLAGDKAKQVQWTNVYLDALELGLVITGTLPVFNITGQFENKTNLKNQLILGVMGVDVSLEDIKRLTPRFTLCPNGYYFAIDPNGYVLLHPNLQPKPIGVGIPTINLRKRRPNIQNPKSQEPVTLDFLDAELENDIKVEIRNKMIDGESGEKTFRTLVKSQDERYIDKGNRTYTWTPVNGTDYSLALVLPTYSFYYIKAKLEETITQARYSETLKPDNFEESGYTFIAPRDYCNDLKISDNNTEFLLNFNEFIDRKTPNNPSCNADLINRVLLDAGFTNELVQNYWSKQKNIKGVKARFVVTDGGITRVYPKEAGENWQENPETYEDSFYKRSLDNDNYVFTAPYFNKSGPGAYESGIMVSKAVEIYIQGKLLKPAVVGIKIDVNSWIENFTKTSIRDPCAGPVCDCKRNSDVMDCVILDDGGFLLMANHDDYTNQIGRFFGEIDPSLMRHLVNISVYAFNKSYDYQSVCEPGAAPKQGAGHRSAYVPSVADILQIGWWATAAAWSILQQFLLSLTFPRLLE
T2 sequence (P54289 957-1103 partner): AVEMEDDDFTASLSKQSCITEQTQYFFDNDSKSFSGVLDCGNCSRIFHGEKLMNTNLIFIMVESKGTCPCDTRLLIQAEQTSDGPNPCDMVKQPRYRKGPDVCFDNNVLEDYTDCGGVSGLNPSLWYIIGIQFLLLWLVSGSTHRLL

T1 sequence (Q12809 whole entry): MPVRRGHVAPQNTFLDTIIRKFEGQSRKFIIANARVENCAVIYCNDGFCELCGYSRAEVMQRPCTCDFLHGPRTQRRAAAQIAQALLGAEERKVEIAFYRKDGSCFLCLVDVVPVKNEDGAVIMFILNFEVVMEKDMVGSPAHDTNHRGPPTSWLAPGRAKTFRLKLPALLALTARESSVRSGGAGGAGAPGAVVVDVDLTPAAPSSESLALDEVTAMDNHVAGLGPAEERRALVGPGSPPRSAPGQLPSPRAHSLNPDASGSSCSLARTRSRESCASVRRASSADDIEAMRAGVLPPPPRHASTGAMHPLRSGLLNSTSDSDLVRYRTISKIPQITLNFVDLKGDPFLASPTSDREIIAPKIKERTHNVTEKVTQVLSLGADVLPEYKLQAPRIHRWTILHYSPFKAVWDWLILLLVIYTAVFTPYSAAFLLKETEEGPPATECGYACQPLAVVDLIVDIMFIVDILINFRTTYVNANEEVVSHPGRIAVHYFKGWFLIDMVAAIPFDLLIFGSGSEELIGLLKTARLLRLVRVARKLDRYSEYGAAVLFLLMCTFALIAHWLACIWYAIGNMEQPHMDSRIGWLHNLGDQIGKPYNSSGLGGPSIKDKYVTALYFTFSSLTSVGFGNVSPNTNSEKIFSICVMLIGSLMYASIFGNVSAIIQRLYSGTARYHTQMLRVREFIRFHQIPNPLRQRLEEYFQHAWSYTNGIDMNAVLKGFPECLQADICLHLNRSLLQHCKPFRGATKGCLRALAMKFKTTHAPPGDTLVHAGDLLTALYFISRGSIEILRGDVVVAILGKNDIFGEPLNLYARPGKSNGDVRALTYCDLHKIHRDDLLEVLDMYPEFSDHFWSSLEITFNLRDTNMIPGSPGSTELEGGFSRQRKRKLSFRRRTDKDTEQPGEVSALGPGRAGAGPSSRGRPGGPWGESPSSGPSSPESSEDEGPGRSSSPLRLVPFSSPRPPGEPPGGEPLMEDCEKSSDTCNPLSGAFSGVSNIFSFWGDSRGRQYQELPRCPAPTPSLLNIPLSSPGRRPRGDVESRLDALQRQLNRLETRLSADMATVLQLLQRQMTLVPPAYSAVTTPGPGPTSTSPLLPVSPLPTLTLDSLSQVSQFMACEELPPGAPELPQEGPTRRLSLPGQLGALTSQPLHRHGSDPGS

## C[C@]12CC[C@H](O)C[C@H]1CC[C@@H]1[C@@H]2CC[C@]2(C)[C@@H](c3ccc(=O)oc3)CC[C@]12O [BF, bufalin]
hERG (hKv11.1)
  IC50: > 100 µM
[1]
  IC50: 12.5 µM
